Data reported in the supplement of paper PMC3937590.

What was measured:
Experiment in all cases: -log10 GI50 (growth inhibition 50%) (-log10(M)); higher = more potent growth inhibition
BT20 = system: BT20
Summary of the method: (§1)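 A value carrying a < qualifier equals the top dose tested. Each compound was tested in triplicate on breast cancer cell lines for 72 hours at nine doses in 1:5 serial dilution, using a luminescence read-out against a time-zero plate. Nonlinear least squares fitting of a Gompertz curve gave GI50, the molar concentration causing the set level of growth inhibition, which is reported as its negative logarithm. The logarithm is base 10.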

21NT = system: 21NT
Summary of the method: as §1

HCC3153 = system: HCC3153
Summary of the method: as §1

SKBR3 = system: SKBR3
Summary of the method: as §1

HCC1428 = system: HCC1428
Summary of the method: as §1

ZR751 = system: ZR751
Summary of the method: as §1

SUM225CWN = system: SUM225CWN
Summary of the method: as §1

21MT1 = system: 21MT1
Summary of the method: as §1

HCC1143 = system: HCC1143
Summary of the method: as §1

HCC1806 = system: HCC1806
Summary of the method: as §1

HCC202 = system: HCC202
Summary of the method: as §1

BT483 = system: BT483
Summary of the method: as §1

ZR7530 = system: ZR7530
Summary of the method: as §1

| Structure (SMILES) | -log10 GI50 (BT20) | -log10 GI50 (21NT) | -log10 GI50 (HCC3153) | -log10 GI50 (SKBR3) | -log10 GI50 (HCC1428) | -log10 GI50 (ZR751) | -log10 GI50 (SUM225CWN) | -log10 GI50 (21MT1) | -log10 GI50 (HCC1143) | -log10 GI50 (HCC1806) | -log10 GI50 (HCC202) | -log10 GI50 (BT483) | -log10 GI50 (ZR7530) |
| --- | --- | --- | --- | --- | --- | --- | --- | --- | --- | --- | --- | --- | --- |
| Cn1ncc(Cl)c1-c1cc(C(=O)N[C@H](CN)Cc2ccc(F)c(F)c2)oc1Cl | 5.25 | 5.35 | 6.12 | 6.93 | 4.94 | 8.26 | 6.88 | 5.35 | 5.41 | 5.25 | – | – | – |
| CCN(CC)C(=S)SSC(=S)N(CC)CC [Disulfiram] | 7.3 | 4.72 | 5.13 | 7.1 | 4.97 | – | – | < 4.18 | 6.95 | – | 4.84 | 4.18 | 7.05 |
| COC(=O)Nc1nc2cc(C(=O)c3ccccc3)ccc2[nH]1 [Mebendazole] | 6.19 | 6.08 | 6.69 | 6.49 | < 4.18 | 6.62 | – | 4.74 | 6.01 | 6.5 | 6.68 | 5.67 | 6.35 |
| Cc1c(O)cccc1C(=O)N[C@@H](CSc1ccccc1)[C@H](O)CN1C[C@H]2CCCC[C@H]2C[C@H]1C(=O)NC(C)(C)C [Nelfinavir] | 5.16 | 4.57 | 5.21 | 5.09 | 5.16 | 4.94 | – | 4.87 | 5.13 | 5.11 | 5.34 | 5.01 | 5.74 |
